{"source": "patent US10960037B2", "about": "“Method of treating neurological conditions with extract of Nerium species or Thevetia species” (PHOENIX BIOTECHNOLOGY, INC., priority 2010, dated 2021)", "key": {"[1]": {"system": "ARE target genes Gclm, Nqo1, Srx, Hmox1", "experiment": "ARE target gene expression by qPCR, rat co-cultures", "type": "cell-based", "details": "for expression of ARE target genes: 6 h", "experimental": "FIG. 17 depicts the results of expression assays for Fraction 0-4 and the individual triterpenes oleanolic acid, ursolic acid, betulinic acid and uvaol. “X” symbols denote concentrations of compounds which induced toxicity and for which recovery of residual mRNA was insufficient to support qPCR analysis. Rat primary corticostriatal co-cultures were treated for 6 h with Fraction 0-4 (in μg/ml) or oleanolic acid, ursolic acid, betulinic acid, or uvalol (all in μM) at the concentrations indicated, then harvested and processed for qPCR analysis of the ARE target genes shown. Quantitative RNA values were normalized to the GAPDH reference control and fold-expression changes are expressed relative to the DMSO-carrier only condition (“--”) set to a value of 1. Dark bars denote statistically significant differences with respect to the DMSO-carrier only control by a Student's t-test at p<0.05.\nFIG. 18 depicts the results of expression assays for Fraction 0-4 and the individual triterpenes ursolic acid and betulinic acid at more similar concentration ranges. Rat primary corticostriatal co-cultures were treated for 6 h with Fraction 0-4 (in μg/ml) or ursolic acid and betulinic acid (in μM) at the concentrations indicated, then harvested and processed for qPCR analysis of the ARE target genes shown. Quantitative RNA values were normalized to the GAPDH reference control and fold-expression changes are expressed relative to the DMSO-carrier only condition (“--”) set to a value of 1. Dark blue bars denote statistically significant differences with respect to the DMSO-carrier only control by a Student's t-test at p<0.05.\nFor qPCR quantification of ARE target gene expression levels, cortical and striatal neurons were plated onto 96-well plates containing mature glial cultures and cultured for 96 h. Fraction 0-4 was added to cultures at the indicated concentrations for 6 h. At the end of the treatment period, cells were lysed and total RNA was isolated using Absolutely RNA mini-prep kits (Agilent Technologies/Stratagene). cDNA was generated using oligo dT primers and Superscript II reverse transcriptase (Invitrogen). Resulting cDNA was used for quantitative PCR of gene transcripts using SYBR Green Real-Time PCR Master Mix (Life Technologies) and the following mouse primers, for: Gclc (forward-5′ […]-3′ and reverse-5′-[…]-3′), Nqo1 (forward-5′-GCCCGCATGCAGATCCT-3′ and reverse 5′-[…]3′), Srx (forward-5′-[…]-3′ and reverse-5′-[…]-3′), and Hmox1 (forward-5′-[…]-3′ and reverse-5′-[…]-3′) (Integrated DNA Technologies). […] Each biological sample was measured in triplicate on a ViiA 7 real-time PCR instrument (Applied Biosystems); fold expression was calculated after normalization to corresponding control GAPDH levels."}, "[2]": {"system": "cortical pyramidal neurons in APP-transfected brain slices", "experiment": "Brain slice APP/Aβ-induced degeneration \"Alzheimer's\" assay", "type": "cell-based, rat", "details": "result in words", "source_text": "Example 9 provides a detailed description of an in vitro assay used to evaluate the efficacy of the extract for the treatment of Alzheimer's disease. The assay is a brain slice-based assay for APP/Aβ-induced (APP: amyloid precursor protein) degeneration of cortical pyramidal neurons. Upon cleavage by a secretase enzyme, the APP is reduced to Aβ peptides which are believed to be a causative factor in beta-amyloid plaque formation. Aβ proteins are associated with beta-amyloid plaque formation and are believed to be a hallmark if not etiologic factor in Alzheimer's disease. […]\nThe APP-WT brain slice-based Alzheimer's assay was repeated (Example 11) using fractions of the SCF extract of Nerium oleander. The number of healthy cortical neurons was determined following APP/Aβ-induced degeneration in the presence of varying amounts of fraction 0-4A of the SCF extract (0.01 to 100 μg/ml). […]\n(§1) For all brain slice assays, numbers of healthy pyramidal neurons in the cortical regions of each brain slice were imaged on a Leica MZIIIFL fluorescence stereomicroscope. Cortical pyramidal neurons were readily identified by their characteristic positions and orientations in the cortical plate, and by their prominent extension of a single, apical dendrite radially towards the pial surface. […]"}, "[3]": {"system": "cortical and striatal neurons transfected with mutant htt", "experiment": "Cortico-striatal co-culture \"Huntington's disease\" assay", "type": "cell-based", "source_text": "Example 10 provides a detailed description of an assay used to evaluate the efficacy of the extract (or fraction thereof) for the treatment of Huntington's disease. Mutant htt protein is introduced via electroporation into high-density, mixed co-cultures of cortical neurons, striatal neurons, and glia. The striatal and cortical neurons are transfected with different color fluorescent proteins thereby facilitating the separate identification of the different types of neurons in the co-culture. The color fluorescent proteins are fluorescent and ‘emit’ color upon activation with a light source of appropriate wavelength. […] Such other agents can be used along with or in the absence of oleandrin or other cardiac glycoside.\nIn this assay, instead of using intact brain slices, mutant htt is introduced via electroporation into high-density, mixed co-cultures of cortical neurons, striatal neurons, and glia arrayed in 96-well plates. […] In this assay, over the course of 1-2 weeks in vitro, transfected mutant htt constructs induce the progressive degeneration of both striatal and cortical neurons that are subsequently quantified using automated image acquisition and object detection algorithms on the Cellomics Arrayscan VTI platform. […] In a full run, some 25,000 images are collected and analyzed in each cycle, 4 cycles per week. […]"}, "[4]": {"system": "healthy cortical pyramidal neurons in brain slices subjected to OGD", "experiment": "Brain slice-based oxygen-glucose deprivation (OGD) \"stroke\" neuroprotection assay", "type": "cell-based, Sprague-Dawley rat", "details": "result in words", "experimental": "Example 8 provides a detailed description of an in vitro assay used to evaluate the efficacy of the extract, or fraction thereof, or composition thereof, for the treatment of stroke-mediated ischemic neuronal injury. The assay is a brain slice-based assay for oxygen and glucose deprivation (OGD) used to induce 50% loss of healthy cortical neurons by 24 hours. The parent unfractionated SCF extract of Nerium species, e.g. Nerium oleander, is used as a positive control. The parent extract is then fractionated according to Example 13 to provide a fraction of extract of Nerium species. The fractions are analyzed according to Examples 6, 14 and 17.\nNeocortical brain slices were prepared from PND 7 Sprague-Dawley rat pups. The cerebral cortex was dissected, cut into 400-μ-thick slices and transferred into a container containing cold artificial cerebrospinal fluid with 1 μM MK-801 before plating; MK-801 was not included in any subsequent procedures. To mimic ischemic injury using transient oxygen-glucose deprivation (OGD), slices from one hemisphere of each brain were exposed to glucose-free, N2-bubbled artificial cerebrospinal fluid for 7.5 min in a low 02 (0.5%) environment. The OGD slices were then plated side-by-side with control slices from the contralateral hemisphere on nitrocellulose or Millicell (Millipore) permeable membranes, which were prepared identically except for no OGD. Thirty minutes after plating, the brain slice pairs were transfected, transferred to 24-well plates, and incubated at 37° C. under 5% CO2 in humidified chambers. In each experiment, 5-6 minutes of oxygen-glucose deprivation (OGD) was used to induce >50% loss of healthy cortical neurons by 24 hrs. A set concentration (3 μM) of neriifolin (a cardiac glycoside) was used as the internal positive control. […] A neuroprotective composition can be used as described herein for oleandrin.\nCoronal brain slices (250 μm thick) were prepared from postnatal day 10 Sprague-Dawley rat pups of either gender (Charles River) and established in organotypic culture. Animals were sacrificed in accordance with NIH guidelines and under Duke IACUC approval and oversight. […]\nas §1"}, "[5]": {"system": "cortical neurons in \"non-OGD\" brain slices", "experiment": "Non-stroke (non-OGD) brain slice assay", "type": "cell-based, Sprague-Dawley rat", "details": "sliced and YFP-transfected, no OGD", "experimental": "Neuroprotective composition, oleandrin, PBI-05204 (an unfractionated SCF extract of Nerium oleander) or a fraction of the extract (PBI-04711) were tested on “nonstroked” brain slices; that is, ones that were sliced and transfected with YFP but not subjected to additional trauma via OGD. See experimental procedure outlined above."}}, "note": "Entries after “also recorded” stand apart in the source; their conditions may differ.", "data": [{"smiles": "C=C(C)[C@@H]1CC[C@]2(C(=O)O)CC[C@]3(C)[C@H](CC[C@@H]4[C@@]5(C)CC[C@H](O)C(C)(C)[C@@H]5CC[C@]43C)[C@@H]12", "note": "[Betulinic acid, betulinic acid]", "values": [{"measurement": "toxicity in co-cultures", "setting": "[1]", "result": "toxicity at higher concentrations"}]}, {"smiles": "CO[C@H]1C[C@H](O[C@H]2CC[C@@]3(C)[C@H](CC[C@@H]4[C@@H]3CC[C@]3(C)[C@@H](C5=CC(=O)OC5)[C@@H](OC(C)=O)C[C@]43O)C2)O[C@@H](C)[C@@H]1O", "note": "[Oleandrin, oleandrin]", "values": [{"measurement": "neuroprotection in APP brain slice assay", "setting": "[2]", "result": "concentration-dependent neuroprotection"}, {"measurement": "potency relative to KW6002", "setting": "[3]; FIGS. 3A-3D", "result": "~100", "unit": "fold"}, {"measurement": "efficacy (surviving neurons) in cortico-striatal co-culture assay", "setting": "[3]; result in words", "result": "more effective than KW6002; also recorded: strongest hits; also recorded: on par with KW6002"}]}, {"smiles": "CC1(C)CC[C@]2(C(=O)O)CC[C@]3(C)C(=CC[C@@H]4[C@@]5(C)CC[C@H](O)C(C)(C)[C@@H]5CC[C@]43C)[C@@H]2C1", "note": "[Oleanolic acid, oleanolic acid]", "values": [{"measurement": "cellular toxicity", "setting": "[4]", "result": "not exhibited observable cellular toxicity"}, {"measurement": "neuroprotection in brain slice OGD assay", "setting": "[4]", "result": "robust neuroprotection"}, {"measurement": "neuroprotection in brain slice OGD assay", "setting": "[4]; listed as OA", "result": "accounts for a majority of the neuroprotective activity; also recorded: substantially higher activity than UA"}, {"measurement": "expression of ARE target genes", "setting": "[1]", "result": "robust upregulation of canonical ARE target genes"}]}, {"smiles": "C[C@H]1[C@H](C)CC[C@]2(C(=O)O)CC[C@]3(C)C(=CC[C@@H]4[C@@]5(C)CC[C@H](O)C(C)(C)[C@@H]5CC[C@]43C)[C@H]12", "note": "[Ursolic acid, ursolic acid]", "values": [{"measurement": "neuroprotection in brain slice OGD assay", "setting": "[4]; listed as UA", "result": "lower activity; also recorded: rise and fall in activity as concentration is increased"}, {"measurement": "expression of ARE target genes", "setting": "[1]", "result": "robust upregulation of canonical ARE target genes; also recorded: clear upregulation of Srx and Hmox1"}, {"measurement": "expression of ARE target genes", "setting": "[1]; listed as UA", "result": "due more so to the activity of UA than of OA or BA"}]}, {"smiles": "CO[C@H]1[C@H](O)[C@H](O[C@H]2CC[C@@]3(C)[C@H](CC[C@@H]4[C@@H]3CC[C@]3(C)[C@@H](C5=CC(=O)OC5)CC[C@]43O)C2)O[C@@H](C)[C@@H]1O", "note": "[neriifolin]", "values": [{"measurement": "neuroprotection of non-OGD brain slices", "setting": "[5]", "result": "modest levels of neuroprotection"}]}]}
